According to patent US7626021B2, “Fused ring heterocycle kinase modulators” (SGX Pharmaceuticals, Inc., priority 2004, dated 2009):

Molecular target: T1, Abl T315I KD (unphosphorylated c-Abl T315I kinase domain) (Mus musculus, UniProt P00520, T315I)
T1 construct: purified and unphosphorylated T315I Abl kinase domain; made in house; host or cells: E. coli BL21(DE3)
T1 sequence (P00520 242-493 T315I limits assumed): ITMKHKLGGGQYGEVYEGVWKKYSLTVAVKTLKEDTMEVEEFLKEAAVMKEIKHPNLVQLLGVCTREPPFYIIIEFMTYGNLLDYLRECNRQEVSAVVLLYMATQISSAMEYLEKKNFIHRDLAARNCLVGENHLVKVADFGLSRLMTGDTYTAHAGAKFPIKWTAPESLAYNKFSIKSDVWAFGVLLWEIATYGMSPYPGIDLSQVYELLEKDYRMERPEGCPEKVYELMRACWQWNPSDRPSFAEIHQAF
Test: c-Abl T315I (unphosphorylated kinase domain) enzyme assay, PK/LDH coupled
Format: biochemical
Details: mutant Abl kinase domain at zero phosphorylation state; read-out: Abl_T215l—0P IC50
From the text: Although the first of these examples uses the kinase domain of a mutant form of Abl T315I (“Abl T315I KD”), the kinase assays may use various forms of mutant and wild type enzymes, including, for example, the entire protein, the kinase domain, or a portion thereof (e.g. Abl Y393F). The kinases used in the assays may also be of varying phosphorylation states. In the c-Abl example, a mutant kinase at a zero phosphorylation state was used.
c-Abl Pyruvate Kinase/Lactate Dehydrogenase Coupled Enzyme Assay
In the c-Abl Pyruvate Kinase (PK)/Lactate Dehydrogenase (LDH) Coupled Assay the protein kinase dependant phosphorylation of a substrate peptide was coupled to the oxidation of NADH. The oxidation of NADH to NAD+ was detected by monitoring a decrease in absorbance at 340 nm.
Materials: Abl substrate peptide=EAIYAAPFAKKK SEQ ID NO:1)-OH (Biopeptide, San Diego, Calif.); βNADH (Sigma Cat#N-8129, FW=709.4); 2M MgCl2; 1M HEPES buffer, pH 7.5; Phosphoenolpyruvate (PEP) (Sigma Cat#P-7002, FW=234); Lactate dehydrogenase (LDH) (Worthington Biochemical Cat#2756); Pyruvate Kinase (PK) (Sigma Cat#P-9136); ATP (Sigma Cat#A-3377, FW=551); Greiner 384-well UV star plate; and purified and unphosphorylated T315I Abl kinase domain.
Stock Solutions: 10 mM NADH (7.09 mg/ml in miliQH2O) made fresh daily; 10 mM Abl substrate peptide (13.4 mg/ml in miliQH2O) stored at −20° C.; 100 mM HEPES buffer, pH 7.5 (5 ml IM stock+45 ml miliQH2O); 100 mM MgCl2 (5 ml 2M MgCl2+95 ml dH2O); 100 mM PEP (23.4 mg/ml in dH2O) stored at −20° C.; 10 mM ATP (5.51 mg/ml in dH2O) stored at −20° C. (diluted 50 μl into total of 10 ml miliQH2O daily=50 μM ATP working stock); 1000 U/ml PK (U/mg varies with lot) flash-frozen under liquid N2 and stored at −80° C.; and 1000 U/ml LDH (U/mg varies with lot) flash-frozen under liquid N2 and stored at −80° C.
Standard Assay Setup for 384-well format (50 μl reaction): 300 μM NADH; 10 mM MgCl2; 2 mM PEP; 45 U/ml PK; 60 U/ml LDH; 200 μM Abl substrate peptide; 2.5 μl test compound (in DMSO); 2 μg/ml Abl kinase domain; 10 μM ATP; 100 mM HEPES buffer. Positive controls contained DMSO with no test compound. Negative controls contained 5 μl of 0.5M EDTA (50 mM in the assay). The dephosphorylated form of the c-Abl T315I mutant was used in the biochemical screening assays. The kinase reaction was initiated at time t=0 by the addition of ATP.
Activity was measured by following the time-dependent loss of NADH by absorbance spectroscopy at 340 nm. The linear portion of the resulting progress curve was then analyzed by linear regression to get the activity in absorbance units/time, reported as the slope of that best fit line (moles/unit time can be calculated from using molar extinction coefficient for NADH at 340 nm, 6250M^−1cm^−1).
Data was evaluated using the equation: Z′=1-[3*(σ++σ−)/|μ+−μ−|] (Zhang, et al., 1999 J Biomol Screening 4(2) 67-73), where […] the mean and σ the standard deviation. The subscript designates positive or negative controls. The Z′ score for a robust screening assay should be 0.50. The typical threshold=μ+−3*σ+. Any value that falls below the threshold was designated a “hit”.
Dose response was analyzed using the equation: y=min+{(max−min)/(1+10^[compound]-logIC50)}, where y is the observed initial slope, max=the slope in the absence of inhibitor, min=the slope at infinite inhibitor, and the IC50 is the [compound] that corresponds to ½ the total observed amplitude (Amplitude=max−min).
To measure modulation, activation, or inhibition of Abl KD, a test compound was added to the assay at a range of concentrations. Inhibitors may inhibit Abl KD activity at an IC50 in the micromolar range, the nanomolar range, or, for example, in the subnanomolar range.

Compound	IC50 [nM]
COc1ccccc1-c1n[nH]c2ncc(Br)cc12	< 1000
c1ccc(-c2n[nH]c3ncc(-c4ccc5[nH]ccc5c4)cc23)cc1	< 1000
Oc1cccc(-c2cnc3[nH]nc(-c4ccccc4)c3c2)c1	< 1000
c1ccc(-c2n[nH]c3ncc(-c4cccnc4)cc23)cc1	< 1000
COc1ccccc1-c1n[nH]c2ncc(-c3cccnc3)cc12	< 1000
COc1ccccc1-c1n[nH]c2ncc(-c3cccc(C(=O)N(C)C)c3)cc12	< 1000
COc1ccccc1-c1n[nH]c2ncc(-c3ccc(O)c(C(=O)N4CCOCC4)c3)cc12	< 1000
CCOc1ccccc1-c1n[nH]c2ncc(-c3cccc(C(=O)N4CCOCC4)c3)cc12	< 1000
COc1ncc(-c2n[nH]c3ncc(-c4cccc(C(=O)N5CCOCC5)c4)cc23)c(OC)n1	< 1000
COc1ccccc1-c1cnc2[nH]nc(-c3ccccc3OC)c2c1	< 1000
COc1ccccc1-c1n[nH]c2ncc(-c3cccc(C(=O)NC(C)C)c3)cc12	< 1000
O=C(c1cccc(-c2cnc3[nH]nc(-c4ccc5cc[nH]c5c4)c3c2)c1)N1CCOCC1	< 1000
COc1ccccc1-c1n[nH]c2ncc(-c3cccc(C(=O)N4CCN(C)CC4)c3)cc12	< 1000
CCc1ccccc1-c1n[nH]c2ncc(-c3cccc(C(=O)N4CCOCC4)c3)cc12	< 1000
Cc1cc(F)ccc1-c1n[nH]c2ncc(-c3cccc(C(=O)N4CCOCC4)c3)cc12	< 1000
COc1c(F)cccc1-c1n[nH]c2ncc(-c3cccc(C(=O)N4CCOCC4)c3)cc12	< 1000
Cc1ccsc1-c1n[nH]c2ncc(-c3cccc(C(=O)N4CCOCC4)c3)cc12	< 1000

Compound	IC50 [nM]
COc1ccccc1-c1n[nH]c2ncc(-c3cccc(C(=O)N4CCC(CO)CC4)c3)cc12	< 1000
O=C(c1cccc(-c2cnc3[nH]nc(-c4cccc5cccnc45)c3c2)c1)N1CCOCC1	< 1000
Cn1ccc2cc(-c3n[nH]c4ncc(-c5cccc(C(=O)N6CCOCC6)c5)cc34)ccc21	< 1000
O=C(c1cccc(-c2cnc3[nH]nc(-c4ccncc4Cl)c3c2)c1)N1CCOCC1	< 1000
COc1ccccc1-c1n[nH]c2ncc(-c3cccc(C(=O)N4CCCC4)c3)cc12	< 1000
COc1ccccc1-c1n[nH]c2ncc(-c3ccc(C(=O)N4CCCC4)cc3)cc12	< 1000
COc1ccccc1-c1n[nH]c2ncc(-c3ccc(C(=O)NC4CC4)cc3)cc12	< 1000
COc1ccccc1-c1n[nH]c2ncc(-c3cnc4[nH]n(C)c(=O)c4c3)cc12	< 1000
COc1ccccc1-c1n[nH]c2ncc(-c3cccc(S(=O)(=O)NC4CC4)c3)cc12	< 1000
COc1ccccc1-c1n[nH]c2ncc(-c3cccc(C(=O)N4CCN(CCN(C)C)CC4)c3)cc12	< 1000
CCN1CCN(C(=O)c2cccc(-c3cnc4[nH]nc(-c5cc(F)ccc5OC)c4c3)c2)CC1	< 1000
COc1cc(-c2cnc3[nH]cc(-c4ccc(C)cc4)c3n2)ccc1O	< 1000
COc1ccccc1-c1n[nH]c2ncc(-c3ccc(C(=O)N4CCN(C)CC4)cc3)cc12	< 1000
COc1cc(-c2cnc3[nH]nc(-c4ccccc4)c3c2)ccc1O	< 1000
COc1ccccc1-c1n[nH]c2ncc(-c3ccc(C(=O)N4CCCCC4)cc3)cc12	< 1000
COc1ccccc1-c1n[nH]c2ncc(-c3ccc(C(=O)N4CCOCC4)cc3)cc12	< 1000
COc1ccccc1-c1c[nH]c2ncc(-c3cccc(C(=O)N(C)C)c3)nc12	< 1000
